Measured values from patent US20220177538A1, “CO-AGONISTS AT GLP-1 AND GIP RECEPTORS SUITABLE FOR ORAL DELIVERY” (Novo Nordisk A/S, priority 2020, published 2022).
Read-outs that look alike come from different tables or passages of the source. Starred links: 1 amine or outer side, 2 acyl side, 3 side chain; linkers in the order of their positions; H or OH if unused. Non-standard residues stand in square brackets, D forms with d. Residues, ends and D or L forms follow the SMILES beside them. Groups on a side chain read outwards from the residue. *: point of attachment. C18 diacid = O=C(O)CCCCCCCCCCCCCCCCC(=O)*; C16 diacid = O=C(O)CCCCCCCCCCCCCCC(=O)*; γGlu = O=C(O)[C@H](CCC(=O)[*:2])N[*:1]; εLys = N[C@@H](CCCCN[*:1])C(=O)[*:2]; AEEA = NCCOCCOCC(=O)O; Aib = CC(C)(N)C(=O)O

Key:
human GIP receptor = molecular target: T1, human GIP receptor (Homo sapiens, UniProt P48546); assay: In vitro functional potency, CRE luciferase reporter, whole BHK cells (hGIPR); type: cell-based; conditions: BHK CRE luc2P hGIPR cells
T1 construct: expressed in transfected cells; host or cells: BHK (parent line BHKTS13), clone BHK CRE luc2P hGIPR
T1 sequence (P48546 22-466): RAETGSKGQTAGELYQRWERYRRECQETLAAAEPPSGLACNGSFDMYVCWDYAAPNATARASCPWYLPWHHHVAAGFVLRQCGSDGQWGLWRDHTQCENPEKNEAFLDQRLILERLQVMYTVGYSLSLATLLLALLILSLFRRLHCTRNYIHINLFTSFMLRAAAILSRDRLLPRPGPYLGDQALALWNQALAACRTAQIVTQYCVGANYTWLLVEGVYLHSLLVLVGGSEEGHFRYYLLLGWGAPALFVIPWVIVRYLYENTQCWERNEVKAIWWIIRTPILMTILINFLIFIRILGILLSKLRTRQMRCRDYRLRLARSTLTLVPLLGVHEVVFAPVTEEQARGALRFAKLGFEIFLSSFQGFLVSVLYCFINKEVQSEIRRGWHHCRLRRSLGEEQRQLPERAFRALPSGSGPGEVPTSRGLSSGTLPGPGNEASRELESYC
Outline: (§1)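 Potencies are replicate means (n≥2) from non-linear log(agonist) vs response fits of CRE-driven luminescence. Cells were overnight-plated BHK CRE luc2P lines transfected with human GIPR or GLP-1R, 5000/well.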

human GLP-1 receptor = human GLP-1 receptor (Homo sapiens, UniProt P43220); assay: In vitro functional potency, CRE luciferase reporter, whole BHK cells (hGLP-1R); type: cell-based; set-up: expressed in transfected cells; host or cells: BHK (parent line BHKTS13), clone BHK CRE luc2P hGLP-1R; conditions: BHK CRE luc2P hGLP-1R cells
human GLP-1 receptor, sequence (P43220 24-463): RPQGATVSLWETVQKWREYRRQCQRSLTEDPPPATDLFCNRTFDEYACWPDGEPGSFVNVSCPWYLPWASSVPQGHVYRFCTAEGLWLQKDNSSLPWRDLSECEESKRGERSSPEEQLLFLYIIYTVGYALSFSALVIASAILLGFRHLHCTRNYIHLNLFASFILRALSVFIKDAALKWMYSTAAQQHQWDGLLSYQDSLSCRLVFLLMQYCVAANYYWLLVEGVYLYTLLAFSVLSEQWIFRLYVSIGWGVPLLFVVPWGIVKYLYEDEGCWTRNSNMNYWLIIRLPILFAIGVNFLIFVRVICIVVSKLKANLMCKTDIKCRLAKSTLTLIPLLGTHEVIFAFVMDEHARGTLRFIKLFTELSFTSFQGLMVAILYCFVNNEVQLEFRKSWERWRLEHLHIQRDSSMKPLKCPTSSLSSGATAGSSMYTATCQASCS
Outline: as §1

[1] = 0% HSA, read-out: hGIPR, CRE Luc 0% HSA EC50
[2] = hGIPR, CRE Luc 1% HSA EC50, 1% HSA
[3] = 0% HSA, read-out: hGLP-1R, CRE Luc 0% HSA EC50
[4] = hGLP-1R, CRE Luc 1% HSA EC50, 1% HSA

Compound	EC50 (human GIP receptor; [1]) [pM]	EC50 (human GIP receptor; [2]) [pM]	EC50 (human GLP-1 receptor; [3]) [pM]	EC50 (human GLP-1 receptor; [4]) [pM]
CC[C@H](C)[C@H](NC(=O)[C@H](Cc1ccccc1)NC(=O)[C@H](CCC(=O)O)NC(=O)[C@H](CCCNC(=N)N)NC(=O)[C@H](C)NC(=O)[C@H](C)NC(=O)[C@H](CCC(N)=O)NC(=O)[C@H](CCC(=O)O)NC(=O)[C@H](CCC(=O)O)NC(=O)[C@H](CC(C)C)NC(=O)[C@H](Cc1ccc(O)cc1)NC(=O)[C@@H](NC(=O)[C@H](CO)NC(=O)[C@H](Cc1ccc(O)cc1)NC(=O)[C@H](CC(=O)O)NC(=O)[C@H](CO)NC(=O)[C@@H](NC(=O)[C@H](Cc1ccccc1)NC(=O)[C@@H](NC(=O)CNC(=O)[C@H](CCC(=O)O)NC(=O)C(C)(C)NC(=O)[C@@H](N)Cc1ccc(O)cc1)[C@@H](C)O)[C@@H](C)O)[C@@H](C)CC)C(=O)N[C@@H](CC(N)=O)C(=O)N[C@@H](Cc1c[nH]c2ccccc12)C(=O)N[C@@H](CC(C)C)C(=O)N[C@@H](CC(C)C)C(=O)N[C@@H](C)C(=O)NCC(=O)NCC(=O)N1CCC[C@H]1C(=O)N[C@@H](CO)C(=O)N[C@@H](CCCCNC(=O)[C@@H](N)CCCCNC(=O)[C@@H](N)CCCCNC(=O)CC[C@H](NC(=O)CCCCCCCCCCCCCCCCC(=O)O)C(=O)O)C(=O)NCC(=O)N[C@@H](C)C(=O)N1CCC[C@H]1C(=O)N1CCC[C@H]1C(=O)N1CCC[C@H]1C(=O)N[C@@H](CO)C(=O)O [Compound 42] (H-Y[Aib]EGTFTSDYSIYLEEQAAREFINWLLAGGPSK([εLys-εLys-γGlu-C18 diacid])GAPPPS-OH)	5.9	306	2.3	83.5
CC[C@H](C)[C@H](NC(=O)[C@H](Cc1ccccc1)NC(=O)[C@H](CCC(=O)O)NC(=O)[C@H](CCCNC(=N)N)NC(=O)[C@H](C)NC(=O)[C@H](C)NC(=O)[C@H](CCC(N)=O)NC(=O)[C@H](CCC(=O)O)NC(=O)[C@H](CCC(=O)O)NC(=O)[C@H](CC(C)C)NC(=O)[C@H](CC(C)C)NC(=O)[C@@H](NC(=O)[C@H](CO)NC(=O)[C@H](Cc1ccc(O)cc1)NC(=O)[C@H](CC(=O)O)NC(=O)[C@H](CO)NC(=O)[C@@H](NC(=O)[C@H](Cc1ccccc1)NC(=O)[C@@H](NC(=O)CNC(=O)[C@H](CCC(=O)O)NC(=O)C(C)(C)NC(=O)[C@@H](N)Cc1ccc(O)cc1)[C@@H](C)O)[C@@H](C)O)[C@@H](C)CC)C(=O)N[C@@H](CC(N)=O)C(=O)N[C@@H](Cc1c[nH]c2ccccc12)C(=O)N[C@@H](CC(C)C)C(=O)N[C@@H](CC(C)C)C(=O)N[C@@H](C)C(=O)NCC(=O)NCC(=O)N1CCC[C@H]1C(=O)N[C@@H](CO)C(=O)N[C@@H](CCCCNC(=O)[C@@H](N)CCCCNC(=O)[C@@H](N)CCCCNC(=O)CC[C@H](NC(=O)CCCCCCCCCCCCCCCCC(=O)O)C(=O)O)C(=O)NCC(=O)N[C@@H](C)C(=O)N1CCC[C@H]1C(=O)N1CCC[C@H]1C(=O)N1CCC[C@H]1C(=O)N[C@@H](CO)C(=O)O [Compound 44] (H-Y[Aib]EGTFTSDYSILLEEQAAREFINWLLAGGPSK([εLys-εLys-γGlu-C18 diacid])GAPPPS-OH)	5.7	365	4.2	241

Continued, values first:

EC50 (human GIP receptor; [1]) [pM]	EC50 (human GIP receptor; [2]) [pM]	EC50 (human GLP-1 receptor; [3]) [pM]	EC50 (human GLP-1 receptor; [4]) [pM]	Compound
3.8	1220	3.9	1580	CC[C@H](C)[C@H](NC(=O)[C@H](Cc1ccccc1)NC(=O)[C@H](CCC(=O)O)NC(=O)[C@H](CCCNC(=N)N)NC(=O)[C@H](C)NC(=O)[C@H](C)NC(=O)[C@H](CCC(N)=O)NC(=O)[C@H](CCC(=O)O)NC(=O)[C@H](CCC(=O)O)NC(=O)[C@H](CC(C)C)NC(=O)[C@H](CC(C)C)NC(=O)[C@@H](NC(=O)[C@H](CO)NC(=O)[C@H](Cc1ccc(O)cc1)NC(=O)[C@H](CC(=O)O)NC(=O)[C@H](CO)NC(=O)[C@@H](NC(=O)[C@H](Cc1ccccc1)NC(=O)[C@@H](NC(=O)CNC(=O)[C@H](CCC(=O)O)NC(=O)C(C)(C)NC(=O)[C@@H](N)Cc1ccc(O)cc1)[C@@H](C)O)[C@@H](C)O)[C@@H](C)CC)C(=O)N[C@@H](CCC(=O)O)C(=O)N[C@@H](Cc1c[nH]c2ccccc12)C(=O)N[C@@H](CC(C)C)C(=O)N[C@@H](CC(C)C)C(=O)N[C@@H](C)C(=O)NCC(=O)NCC(=O)N1CCC[C@H]1C(=O)N[C@@H](CO)C(=O)N[C@@H](CCCCNC(=O)COCCOCCNC(=O)COCCOCCNC(=O)CC[C@H](NC(=O)CCCCCCCCCCCCCCCCC(=O)O)C(=O)O)C(=O)NCC(=O)N[C@@H](C)C(=O)N1CCC[C@H]1C(=O)N1CCC[C@H]1C(=O)N1CCC[C@H]1C(=O)N[C@@H](CO)C(=O)O [Compound 45] (H-Y[Aib]EGTFTSDYSILLEEQAAREFIEWLLAGGPSK([AEEA-AEEA-γGlu-C18 diacid])GAPPPS-OH)
1.8	97	1.5	111	CC[C@H](C)[C@H](NC(=O)[C@H](Cc1ccccc1)NC(=O)[C@H](CCC(=O)O)NC(=O)[C@H](CCCNC(=N)N)NC(=O)[C@H](C)NC(=O)[C@H](C)NC(=O)[C@H](CCC(N)=O)NC(=O)[C@H](CCC(=O)O)NC(=O)[C@H](CCC(=O)O)NC(=O)[C@H](CC(C)C)NC(=O)[C@H](CC(C)C)NC(=O)[C@@H](NC(=O)[C@H](CO)NC(=O)[C@H](Cc1ccc(O)cc1)NC(=O)[C@H](CC(=O)O)NC(=O)[C@H](CO)NC(=O)[C@@H](NC(=O)[C@H](Cc1ccccc1)NC(=O)[C@@H](NC(=O)CNC(=O)[C@H](CCC(=O)O)NC(=O)C(C)(C)NC(=O)[C@@H](N)Cc1ccc(O)cc1)[C@@H](C)O)[C@@H](C)O)[C@@H](C)CC)C(=O)N[C@@H](CCC(=O)O)C(=O)N[C@@H](Cc1c[nH]c2ccccc12)C(=O)N[C@@H](CC(C)C)C(=O)N[C@@H](CC(C)C)C(=O)N[C@@H](C)C(=O)NCC(=O)NCC(=O)N1CCC[C@H]1C(=O)N[C@@H](CO)C(=O)N[C@@H](CCCCNC(=O)[C@@H](N)CCCCNC(=O)[C@@H](N)CCCCNC(=O)CC[C@H](NC(=O)CCCCCCCCCCCCCCC(=O)O)C(=O)O)C(=O)NCC(=O)N[C@@H](C)C(=O)N1CCC[C@H]1C(=O)N1CCC[C@H]1C(=O)N1CCC[C@H]1C(=O)N[C@@H](CO)C(=O)O [Compound 46] (H-Y[Aib]EGTFTSDYSILLEEQAAREFIEWLLAGGPSK([εLys-εLys-γGlu-C16 diacid])GAPPPS-OH)
3.1	156	2.1	154	CC[C@H](C)[C@H](NC(=O)[C@H](Cc1ccccc1)NC(=O)[C@H](CCC(=O)O)NC(=O)[C@H](CCCNC(=N)N)NC(=O)[C@H](C)NC(=O)[C@H](C)NC(=O)[C@H](CCC(N)=O)NC(=O)[C@H](CCC(=O)O)NC(=O)[C@H](CCC(=O)O)NC(=O)[C@H](CC(C)C)NC(=O)[C@H](CC(C)C)NC(=O)[C@@H](NC(=O)[C@H](CO)NC(=O)[C@H](Cc1ccc(O)cc1)NC(=O)[C@H](CC(=O)O)NC(=O)[C@H](CO)NC(=O)[C@@H](NC(=O)[C@H](Cc1ccccc1)NC(=O)[C@@H](NC(=O)CNC(=O)[C@H](CCC(=O)O)NC(=O)C(C)(C)NC(=O)[C@@H](N)Cc1ccc(O)cc1)[C@@H](C)O)[C@@H](C)O)[C@@H](C)CC)C(=O)N[C@@H](CCC(=O)O)C(=O)N[C@@H](Cc1c[nH]c2ccccc12)C(=O)N[C@@H](CC(C)C)C(=O)N[C@@H](CC(C)C)C(=O)N[C@@H](C)C(=O)NCC(=O)NCC(=O)N1CCC[C@H]1C(=O)N[C@@H](CO)C(=O)N[C@@H](CCCCNC(=O)COCCOCCNC(=O)COCCOCCNC(=O)CC[C@H](NC(=O)CCCCCCCCCCCCCCC(=O)O)C(=O)O)C(=O)NCC(=O)N[C@@H](C)C(=O)N1CCC[C@H]1C(=O)N1CCC[C@H]1C(=O)N1CCC[C@H]1C(=O)N[C@@H](CO)C(=O)O [Compound 47] (H-Y[Aib]EGTFTSDYSILLEEQAAREFIEWLLAGGPSK([AEEA-AEEA-γGlu-C16 diacid])GAPPPS-OH)
